In patent publication US20060067931A1, “Receptor for lysophosphatidylcholine in vascular endothelial cells and use thereof” (priority 2004, published 2006):

Assays:
Assay type in all cases: cell-based, human
GPR4 mRNA [1] = assay: RT-PCR of GPR4 mRNA in HBMEC; conditions: within 2 hours, TNF-α 100 U/ml or H2O2
GPR4 mRNA [2] = assay: RT-PCR of GPR4 mRNA in HMEC; conditions: within 2 hours, TNF-α 100 U/ml or H2O2
[3] = tested on: monocyte transmigration across HBMEC; assay: Monocyte transmigration assay across HBMEC

## OO [H2O2]
GPR4 mRNA [1]
  GPR4 mRNA over control: increased GPR4 mRNA over control
GPR4 mRNA [2]
  GPR4 mRNA over control: not HMEC

## C3 transferase
[3]
  effect on basal monocyte transmigration: did not change basal monocyte transmigration
  inhibition of LPC-induced monocyte transmigration: about 65%

## TNF-α
GPR4 mRNA [1]
  GPR4 mRNA over control: increased GPR4 mRNA over control
GPR4 mRNA [2]
  GPR4 mRNA over control: not HMEC
